Among the data in BindingDB's records for doi:10.1016/0006-8993(87)90040-0 (St, Marianna University School of Medicine, 1987) are Ki values, retold here.

Usually Ki stands for a dissociation constant, usually derived from enzyme kinetics or from competition with a known ligand. A lower Ki goes with higher affinity.

D(2) dopamine receptor, sequence (P61169 whole entry): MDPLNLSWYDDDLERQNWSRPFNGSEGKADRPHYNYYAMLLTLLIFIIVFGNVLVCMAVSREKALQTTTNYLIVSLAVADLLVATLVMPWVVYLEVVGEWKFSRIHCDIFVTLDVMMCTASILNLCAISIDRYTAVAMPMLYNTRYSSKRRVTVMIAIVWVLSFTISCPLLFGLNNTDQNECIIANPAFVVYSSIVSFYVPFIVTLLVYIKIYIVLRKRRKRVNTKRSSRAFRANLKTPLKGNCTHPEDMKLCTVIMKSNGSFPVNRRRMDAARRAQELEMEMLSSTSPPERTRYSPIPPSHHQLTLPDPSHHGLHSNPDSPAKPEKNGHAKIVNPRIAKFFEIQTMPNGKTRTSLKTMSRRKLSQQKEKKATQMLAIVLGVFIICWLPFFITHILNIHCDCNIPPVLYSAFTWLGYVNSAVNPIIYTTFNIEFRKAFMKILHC

The assay has as its target D(2) dopamine receptor (Rattus norvegicus, UniProt P61169).
In turn, `CCN1CCC[C@H]1CNC(=O)c1cc(S(=O)(=O)CC)ccc1OC` [Sultopride] showed a Ki of 2.4 nM.

In the case of `CCN(CC)CCNC(=O)c1cc(S(C)(=O)=O)ccc1OC` [CAS_51012-32-9], affinity was put at a Ki of 77 nM.

On to `COC(=O)[C@@H]1[C@H]2C[C@H]3c4[nH]c5ccccc5c4CCN3C[C@@H]2CC[C@@H]1O` [yohimbic acid methyl ester], for which the Ki was determined as 158 nM.

Consider `COc1ccc2c(c1)N(C[C@@H](C)CN(C)C)c1ccccc1S2`, for which the Ki came to 15 nM.

`COc1cc2nc(N3CCN(C(=O)c4ccco4)CC3)nc(N)c2cc1OC` [[3H]-Minipress] came in with a Ki of 8790 nM.
